Laboratory results: ChEMBL document CHEMBL6182925 (J Med Chem, 2025)
In brackets after ≈: the same amount, converted by molar mass.

Tests used:
[1] = Kinetic solubility of compound at pH 2; format: physicochemical; conditions: buffer, read-out: Kinetic_solubility
cells = conditions: Mus musculus, BaF3/TRP-Met, 72 h
[2] = Kinetic solubility of compound at pH 4.5; format: physicochemical; conditions: buffer, read-out: Kinetic_solubility
BaF3 [3] = experiment: cells; conditions: Mus musculus, BaF3, 72 h
[4] = Oral bioavailability in rat; format: ADME, organism-based; conditions: in vivo
[5] = Oral bioavailability in mouse; format: ADME, organism-based; conditions: in vivo
hERG = hERG (Homo sapiens, UniProt Q12809); experiment: Inhibition of hERG at 10 uM by CEREP analysis relative to control; format: toxicity
[6] = biological target: 5-hydroxytryptamine receptor 1B (Homo sapiens) (UniProt P28222); experiment: Inhibition of 5-HT1B receptor (unknown origin) at 10 uM by CEREP analysis relative to control
L-type calcium channel = L-type calcium channel (Homo sapiens, UniProt O60840+Q01668+Q13698+Q13936); experiment: Inhibition of Calcium channel L-type (unknown origin) at 10 uM by CEREP analysis relative to control; format: protein assay
Homo sapiens = species: Homo sapiens; experiment: Inhibition of sodium channel site 2 (unknown origin) at 10 uM by CEREP analysis relative to control
[7] = biological target: 3',5'-cyclic-AMP phosphodiesterase 4D (Homo sapiens) (UniProt Q08499); experiment: Inhibition of PDE4D2 (unknown origin) at 10 uM by CEREP analysis relative to control
[8] = biological target: 5-hydroxytryptamine receptor 2B (Homo sapiens) (UniProt P41595); experiment: Inhibition of 5-HT2B receptor (unknown origin) at 10 uM by CEREP analysis relative to control
[9] = biological target: Sodium-dependent serotonin transporter (Homo sapiens) (UniProt P31645); experiment: Inhibition of SERT (unknown origin) at 10 uM by CEREP analysis relative to control
[10] = biological target: T1, Alpha-2A adrenergic receptor (Homo sapiens) (UniProt P08913); experiment: Inhibition of alpha 2A adrenergic receptor (unknown origin) at 10 uM by CEREP analysis relative to control
T1 sequence (whole entry): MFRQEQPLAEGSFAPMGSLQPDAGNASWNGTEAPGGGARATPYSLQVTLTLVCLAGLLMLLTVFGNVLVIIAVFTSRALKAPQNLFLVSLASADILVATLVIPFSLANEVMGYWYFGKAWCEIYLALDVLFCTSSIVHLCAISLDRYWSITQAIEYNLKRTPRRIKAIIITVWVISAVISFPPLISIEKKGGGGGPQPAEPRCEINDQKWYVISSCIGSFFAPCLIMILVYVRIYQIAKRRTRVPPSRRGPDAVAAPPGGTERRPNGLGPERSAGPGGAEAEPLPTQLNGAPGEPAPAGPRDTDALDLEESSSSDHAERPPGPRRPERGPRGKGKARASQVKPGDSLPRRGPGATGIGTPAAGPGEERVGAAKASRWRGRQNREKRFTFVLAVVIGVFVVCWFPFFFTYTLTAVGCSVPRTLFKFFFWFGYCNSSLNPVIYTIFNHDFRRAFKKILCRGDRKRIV

[11] = biological target: T2, Muscarinic acetylcholine receptor M2 (Homo sapiens) (UniProt P08172); experiment: Inhibition of muscarinic M2 receptor (unknown origin) at 10 uM by CEREP analysis relative to control
T2 sequence (whole entry): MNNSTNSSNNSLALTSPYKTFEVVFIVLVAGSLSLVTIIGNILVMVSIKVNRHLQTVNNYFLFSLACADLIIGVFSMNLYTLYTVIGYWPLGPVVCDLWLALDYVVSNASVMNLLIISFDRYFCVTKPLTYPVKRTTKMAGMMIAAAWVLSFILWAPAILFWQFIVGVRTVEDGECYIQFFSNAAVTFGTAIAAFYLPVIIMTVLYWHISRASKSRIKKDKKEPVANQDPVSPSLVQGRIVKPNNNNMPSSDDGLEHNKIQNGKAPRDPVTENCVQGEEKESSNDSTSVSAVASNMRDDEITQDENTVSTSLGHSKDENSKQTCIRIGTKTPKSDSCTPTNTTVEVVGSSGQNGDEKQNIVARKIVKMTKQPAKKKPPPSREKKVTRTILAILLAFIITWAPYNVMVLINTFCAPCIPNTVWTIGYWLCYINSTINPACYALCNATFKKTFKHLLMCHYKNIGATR

[12] = biological target: cGMP-inhibited 3',5'-cyclic phosphodiesterase 3A (Homo sapiens) (UniProt Q14432); experiment: Inhibition of PDE3A (unknown origin) at 10 uM by CEREP analysis relative to control
Cytochrome P450 3A4 = Cytochrome P450 3A4 (Homo sapiens, UniProt P08684); experiment: Inhibition of CYP3A4 (unknown origin); format: ADME
BaF3 [13] = experiment: cells; conditions: Mus musculus, BaF3, 72 h; remark: listed apart in the source
BaF3 [14] = experiment: cells; conditions: Mus musculus, BaF3, 72 h; remark: listed apart in the source
BaF3 [15] = experiment: cells; conditions: Mus musculus, BaF3, 72 h; remark: listed apart in the source
BaF3 [16] = experiment: cells; conditions: Mus musculus, BaF3, 72 h; remark: listed apart in the source
BaF3 [17] = experiment: cells; conditions: Mus musculus, BaF3, 72 h; remark: listed apart in the source
BaF3 [18] = experiment: cells; conditions: Mus musculus, BaF3, 72 h; remark: listed apart in the source
BaF3 [19] = experiment: cells; conditions: Mus musculus, BaF3, 72 h; remark: listed apart in the source
BaF3 [20] = experiment: cells; conditions: Mus musculus, BaF3, 72 h; remark: listed apart in the source
BaF3 [21] = experiment: cells; conditions: Mus musculus, BaF3, 72 h; remark: listed apart in the source
BaF3 [22] = experiment: cells; conditions: Mus musculus, BaF3, 72 h; remark: listed apart in the source
BaF3 [23] = experiment: cells; conditions: Mus musculus, BaF3, 72 h; remark: listed apart in the source
BaF3 [24] = experiment: cells; conditions: Mus musculus, BaF3, 72 h; remark: listed apart in the source
BaF3 [25] = experiment: cells; conditions: Mus musculus, BaF3, 72 h; remark: listed apart in the source
[26] = Clearance in mouse; format: ADME, organism-based; conditions: in vivo
[27] = biological target: Vascular endothelial growth factor receptor 2 (Homo sapiens, UniProt P35968); experiment: Inhibition of KDR (unknown origin) by fluorescence-based microfluidic mobility shift assay

Sequence of hERG (Q12809 whole entry): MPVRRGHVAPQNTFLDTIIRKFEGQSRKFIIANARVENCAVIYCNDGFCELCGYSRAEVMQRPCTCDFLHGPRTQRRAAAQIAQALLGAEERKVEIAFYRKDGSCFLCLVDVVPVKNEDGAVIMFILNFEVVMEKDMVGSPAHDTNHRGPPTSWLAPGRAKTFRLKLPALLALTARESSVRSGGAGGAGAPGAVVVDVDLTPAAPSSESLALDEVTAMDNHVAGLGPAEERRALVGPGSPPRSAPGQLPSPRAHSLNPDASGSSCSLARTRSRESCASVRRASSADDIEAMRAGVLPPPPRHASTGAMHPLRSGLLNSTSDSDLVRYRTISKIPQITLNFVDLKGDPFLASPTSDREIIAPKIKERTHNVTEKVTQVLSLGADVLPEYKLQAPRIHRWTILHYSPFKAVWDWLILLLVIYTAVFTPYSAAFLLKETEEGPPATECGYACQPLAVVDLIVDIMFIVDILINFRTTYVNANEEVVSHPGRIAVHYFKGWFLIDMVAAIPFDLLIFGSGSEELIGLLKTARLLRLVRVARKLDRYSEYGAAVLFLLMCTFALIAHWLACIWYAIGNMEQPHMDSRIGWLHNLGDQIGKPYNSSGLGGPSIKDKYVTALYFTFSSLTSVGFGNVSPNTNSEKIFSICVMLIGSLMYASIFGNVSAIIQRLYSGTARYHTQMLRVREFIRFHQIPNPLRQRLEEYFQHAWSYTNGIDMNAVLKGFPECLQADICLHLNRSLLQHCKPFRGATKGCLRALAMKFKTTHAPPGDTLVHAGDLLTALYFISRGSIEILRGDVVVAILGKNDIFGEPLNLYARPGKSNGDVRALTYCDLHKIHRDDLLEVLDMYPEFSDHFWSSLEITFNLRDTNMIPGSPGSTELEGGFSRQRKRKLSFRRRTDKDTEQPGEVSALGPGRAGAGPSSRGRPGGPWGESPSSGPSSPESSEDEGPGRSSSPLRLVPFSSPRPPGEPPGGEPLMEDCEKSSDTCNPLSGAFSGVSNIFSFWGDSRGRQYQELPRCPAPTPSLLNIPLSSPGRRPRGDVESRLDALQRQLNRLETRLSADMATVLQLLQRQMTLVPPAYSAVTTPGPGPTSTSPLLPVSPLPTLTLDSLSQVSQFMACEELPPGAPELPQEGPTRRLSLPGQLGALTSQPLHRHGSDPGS
Sequence of 5-hydroxytryptamine receptor 2B (Homo sapiens) (P41595 whole entry): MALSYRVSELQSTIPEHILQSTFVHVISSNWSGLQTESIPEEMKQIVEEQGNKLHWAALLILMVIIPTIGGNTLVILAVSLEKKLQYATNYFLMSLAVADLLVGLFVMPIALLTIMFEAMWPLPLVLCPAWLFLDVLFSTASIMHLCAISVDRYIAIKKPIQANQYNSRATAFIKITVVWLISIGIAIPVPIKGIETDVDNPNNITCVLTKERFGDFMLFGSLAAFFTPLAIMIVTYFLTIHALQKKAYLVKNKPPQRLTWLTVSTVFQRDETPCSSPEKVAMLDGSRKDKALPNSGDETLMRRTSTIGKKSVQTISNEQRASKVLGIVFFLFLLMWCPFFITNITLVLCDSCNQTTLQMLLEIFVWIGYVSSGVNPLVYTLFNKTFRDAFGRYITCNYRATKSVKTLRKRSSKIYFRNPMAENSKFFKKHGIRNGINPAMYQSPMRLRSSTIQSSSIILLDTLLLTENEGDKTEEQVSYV
Sequence of 3',5'-cyclic-AMP phosphodiesterase 4D (Homo sapiens) (Q08499 whole entry): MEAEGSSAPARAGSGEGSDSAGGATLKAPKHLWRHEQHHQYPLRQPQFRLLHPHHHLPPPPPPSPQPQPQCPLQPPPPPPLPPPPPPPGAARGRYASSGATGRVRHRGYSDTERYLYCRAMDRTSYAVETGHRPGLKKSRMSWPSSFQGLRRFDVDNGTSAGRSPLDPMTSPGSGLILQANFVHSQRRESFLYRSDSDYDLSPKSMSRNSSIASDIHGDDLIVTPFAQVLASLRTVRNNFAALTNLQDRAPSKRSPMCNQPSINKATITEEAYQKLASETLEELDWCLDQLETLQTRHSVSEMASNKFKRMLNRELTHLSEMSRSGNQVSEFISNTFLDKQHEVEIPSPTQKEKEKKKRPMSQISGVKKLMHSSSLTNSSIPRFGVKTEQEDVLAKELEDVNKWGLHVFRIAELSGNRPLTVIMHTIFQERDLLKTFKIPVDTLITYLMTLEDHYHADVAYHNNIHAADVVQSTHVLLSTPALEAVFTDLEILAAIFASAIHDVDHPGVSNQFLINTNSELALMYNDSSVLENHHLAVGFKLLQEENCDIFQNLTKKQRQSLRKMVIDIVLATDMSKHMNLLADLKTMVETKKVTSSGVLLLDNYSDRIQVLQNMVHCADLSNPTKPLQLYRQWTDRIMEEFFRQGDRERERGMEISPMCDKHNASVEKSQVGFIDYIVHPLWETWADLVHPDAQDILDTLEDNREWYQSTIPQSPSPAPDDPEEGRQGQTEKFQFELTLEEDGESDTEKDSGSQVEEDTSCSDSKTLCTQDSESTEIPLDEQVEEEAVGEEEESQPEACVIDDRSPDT
Sequence of Sodium-dependent serotonin transporter (Homo sapiens) (P31645 whole entry, looked up): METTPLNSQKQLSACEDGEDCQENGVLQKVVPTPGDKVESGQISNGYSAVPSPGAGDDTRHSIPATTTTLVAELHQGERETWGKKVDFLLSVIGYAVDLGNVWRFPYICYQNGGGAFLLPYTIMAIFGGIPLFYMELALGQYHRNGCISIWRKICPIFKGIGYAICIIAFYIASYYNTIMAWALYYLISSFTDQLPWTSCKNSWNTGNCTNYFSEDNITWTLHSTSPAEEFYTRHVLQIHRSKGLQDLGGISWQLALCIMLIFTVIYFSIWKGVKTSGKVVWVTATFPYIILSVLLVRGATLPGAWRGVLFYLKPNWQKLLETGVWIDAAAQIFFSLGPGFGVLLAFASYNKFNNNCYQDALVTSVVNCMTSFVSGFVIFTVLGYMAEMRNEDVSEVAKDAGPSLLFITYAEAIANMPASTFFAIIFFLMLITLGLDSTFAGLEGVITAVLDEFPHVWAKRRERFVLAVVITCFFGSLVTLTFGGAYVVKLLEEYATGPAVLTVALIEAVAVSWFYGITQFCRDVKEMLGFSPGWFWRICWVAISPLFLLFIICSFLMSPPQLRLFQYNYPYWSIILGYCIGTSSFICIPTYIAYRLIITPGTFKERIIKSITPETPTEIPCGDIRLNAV
Sequence of cGMP-inhibited 3',5'-cyclic phosphodiesterase 3A (Homo sapiens) (Q14432 whole entry): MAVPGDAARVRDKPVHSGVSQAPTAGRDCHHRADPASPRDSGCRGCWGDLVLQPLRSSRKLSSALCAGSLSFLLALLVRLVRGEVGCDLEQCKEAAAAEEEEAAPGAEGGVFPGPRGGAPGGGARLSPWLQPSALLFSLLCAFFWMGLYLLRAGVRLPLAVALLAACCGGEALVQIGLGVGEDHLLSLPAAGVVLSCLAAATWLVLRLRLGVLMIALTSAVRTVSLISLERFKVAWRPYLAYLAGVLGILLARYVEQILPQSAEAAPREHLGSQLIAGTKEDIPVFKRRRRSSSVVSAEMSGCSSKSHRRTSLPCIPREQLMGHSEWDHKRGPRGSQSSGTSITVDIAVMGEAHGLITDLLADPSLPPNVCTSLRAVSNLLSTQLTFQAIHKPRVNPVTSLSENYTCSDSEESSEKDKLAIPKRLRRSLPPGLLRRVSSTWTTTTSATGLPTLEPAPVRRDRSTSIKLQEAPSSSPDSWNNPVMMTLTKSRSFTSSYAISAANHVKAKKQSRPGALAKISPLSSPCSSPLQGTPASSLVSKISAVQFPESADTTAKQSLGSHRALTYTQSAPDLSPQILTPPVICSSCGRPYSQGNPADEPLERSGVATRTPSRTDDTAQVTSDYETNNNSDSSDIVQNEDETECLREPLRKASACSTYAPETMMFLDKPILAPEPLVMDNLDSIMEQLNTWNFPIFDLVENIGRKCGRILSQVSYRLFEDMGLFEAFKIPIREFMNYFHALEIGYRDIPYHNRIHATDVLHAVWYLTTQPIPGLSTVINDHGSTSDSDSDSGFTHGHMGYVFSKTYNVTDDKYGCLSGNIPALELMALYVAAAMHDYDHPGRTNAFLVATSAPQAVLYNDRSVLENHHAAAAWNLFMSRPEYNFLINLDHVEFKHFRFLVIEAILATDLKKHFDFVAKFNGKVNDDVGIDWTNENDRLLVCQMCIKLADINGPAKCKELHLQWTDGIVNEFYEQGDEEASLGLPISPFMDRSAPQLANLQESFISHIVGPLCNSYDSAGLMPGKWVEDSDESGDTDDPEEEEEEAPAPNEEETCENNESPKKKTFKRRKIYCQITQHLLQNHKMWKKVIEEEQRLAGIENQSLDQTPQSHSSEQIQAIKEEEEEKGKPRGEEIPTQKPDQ
Sequence of 5-hydroxytryptamine receptor 1B (Homo sapiens) (P28222 whole entry): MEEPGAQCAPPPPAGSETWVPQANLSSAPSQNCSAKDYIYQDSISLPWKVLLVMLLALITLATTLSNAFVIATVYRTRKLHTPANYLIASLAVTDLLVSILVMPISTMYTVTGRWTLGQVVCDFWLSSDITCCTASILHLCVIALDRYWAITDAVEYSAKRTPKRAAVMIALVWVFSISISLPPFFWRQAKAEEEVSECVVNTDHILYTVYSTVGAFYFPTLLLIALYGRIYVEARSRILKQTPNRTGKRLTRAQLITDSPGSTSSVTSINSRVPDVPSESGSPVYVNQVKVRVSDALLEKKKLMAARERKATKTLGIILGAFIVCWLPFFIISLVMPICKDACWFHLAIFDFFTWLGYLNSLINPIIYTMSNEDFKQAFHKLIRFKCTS

**Q.** With `COc1cc2nccc(Oc3c(F)cc(NC(=O)c4cnccc4OC)cc3F)c2cc1OC` as the compound, how does the solubility kinetic [1] read?
**A.** 205 µM (≈ 95.8 µg/mL)

**Q.** What about the EC50 (cells) of the same compound?
**A.** 123 nM

**Q.** And the solubility kinetic [2]?
**A.** 5.4 µM (≈ 2.52 µg/mL)

**Q.** What about the EC50 (BaF3 [3]) of the same compound?
**A.** 56 nM

**Q.** With `COc1cc2c(Oc3c(F)cc(NC(=O)c4cnccc4OC)cc3F)ccnc2cc1OCCO` as the compound, how does the bioavailability [4] read?
**A.** ~100%

**Q.** And the bioavailability [5]?
**A.** ~100%

**Q.** What about the solubility kinetic [1] of the same compound?
**A.** 315 µM (≈ 157 µg/mL)

**Q.** And the EC50 (cells)?
**A.** 36 nM

**Q.** What about the solubility kinetic [2] of the same compound?
**A.** 11 µM (≈ 5.47 µg/mL)

**Q.** What about the inhibition at 10 µM (hERG) of the same compound?
**A.** 3%

**Q.** And the inhibition [6]?
**A.** -8%

**Q.** And the inhibition at 10 µM (L-type calcium channel)?
**A.** -3%

**Q.** And the inhibition (Homo sapiens)?
**A.** 30%

**Q.** And the inhibition [7]?
**A.** 90%

**Q.** And the inhibition [8]?
**A.** 18%

**Q.** And the inhibition [9]?
**A.** 7%

**Q.** What about the inhibition [10] of the same compound?
**A.** 8%

**Q.** What about the EC50 (BaF3 [3]) of the same compound?
**A.** 31 nM

**Q.** What about the inhibition [11] of the same compound?
**A.** 12%

**Q.** What about the inhibition [12] of the same compound?
**A.** 98%

**Q.** With `COc1cc2nccc(Oc3ccc(NC(=O)c4cnccc4OC)cc3F)c2cc1OC` as the compound, how does the solubility kinetic [1] read?
**A.** 252 µM (≈ 113 µg/mL)

**Q.** What about the EC50 (cells) of the same compound?
**A.** 382 nM

**Q.** What about the IC50 (Cytochrome P450 3A4) of the same compound?
**A.** > 50 µM

**Q.** What about the solubility kinetic [2] of the same compound?
**A.** 24 µM (≈ 10.8 µg/mL)

**Q.** What about the EC50 (BaF3 [3]) of the same compound?
**A.** 174 nM

**Q.** For `COc1cc2nccc(Oc3ccc(NC(=O)C4(C(=O)Nc5ccc(F)cc5)CC4)cc3)c2cc1OC` [CABOZANTINIB], which solubility kinetic [1] is on record?
**A.** 21 µM (≈ 10.5 µg/mL)

**Q.** And the solubility kinetic [2]?
**A.** 5.2 µM (≈ 2.61 µg/mL)

**Q.** Which EC50 (BaF3 [13]) does the source give for `CN1CCC(COc2cnc(-c3cccc(Cn4nc(-c5cccc(C#N)c5)ccc4=O)c3)nc2)CC1` [TEPOTINIB] here?
**A.** 2210 nM

**Q.** And the solubility kinetic [1]?
**A.** 295 µM (≈ 145 µg/mL)

**Q.** What about the EC50 (BaF3 [14]) of the same compound?
**A.** 3.44 µM

**Q.** And the EC50 (cells)?
**A.** 6.4 nM

**Q.** What about the EC50 (BaF3 [15]) of the same compound?
**A.** 183 nM

**Q.** What about the EC50 (BaF3 [16]) of the same compound?
**A.** 2.3 nM

**Q.** And the EC50 (BaF3 [17])?
**A.** 1820 nM

**Q.** What about the solubility kinetic [2] of the same compound?
**A.** 48 µM (≈ 23.6 µg/mL)

**Q.** What about the EC50 (BaF3 [18]) of the same compound?
**A.** 123 nM

**Q.** And the EC50 (BaF3 [19])?
**A.** 0.6 nM

**Q.** And the EC50 (BaF3 [20])?
**A.** 4.2 nM

**Q.** And the EC50 (BaF3 [21])?
**A.** 122 nM

**Q.** What about the EC50 (BaF3 [22]) of the same compound?
**A.** 24 nM

**Q.** And the EC50 (BaF3 [23])?
**A.** 3.41 µM

**Q.** What about the EC50 (BaF3 [3]) of the same compound?
**A.** 1910 nM

**Q.** And the EC50 (BaF3 [24])?
**A.** 2810 nM

**Q.** And the EC50 (BaF3 [25])?
**A.** 3.04 µM

**Q.** Which bioavailability [5] does the source give for `CNCCOc1cc2nccc(Oc3c(F)cc(NC(=O)c4cnccc4OC)cc3F)c2cc1OC` here?
**A.** < 5%

**Q.** And the solubility kinetic [1]?
**A.** 276 µM (≈ 141 µg/mL)

**Q.** And the EC50 (cells)?
**A.** 59 nM

**Q.** And the solubility kinetic [2]?
**A.** 208 µM (≈ 106 µg/mL)

**Q.** And the inhibition at 10 µM (hERG)?
**A.** 70%

**Q.** And the inhibition [6]?
**A.** 54%

**Q.** What about the inhibition at 10 µM (L-type calcium channel) of the same compound?
**A.** 41%

**Q.** And the inhibition (Homo sapiens)?
**A.** 89%

**Q.** And the inhibition [7]?
**A.** 11%

**Q.** What about the inhibition [8] of the same compound?
**A.** 58%

**Q.** What about the inhibition [9] of the same compound?
**A.** 101%

**Q.** And the inhibition [10]?
**A.** 54%

**Q.** And the EC50 (BaF3 [3])?
**A.** 41 nM

**Q.** What about the inhibition [11] of the same compound?
**A.** 3%

**Q.** And the inhibition [12]?
**A.** -2%

**Q.** And the clearance [26]?
**A.** 43 mL/min/kg

**Q.** With `COCCNCc1ccc(-c2cc3nccc(Oc4ccc(NC(=S)NC(=O)Cc5ccc(F)cc5)cc4F)c3s2)nc1` [GLESATINIB] as the compound, how does the solubility kinetic [1] read?
**A.** 4 µM (≈ 2.48 µg/mL)

**Q.** What about the solubility kinetic [2] of the same compound?
**A.** 0.12 µM (≈ 0.0744 µg/mL)

**Q.** What about the IC50 [27] of the same compound?
**A.** 0.5 nM
